The conditions of experiment [1]: animal models; cited from earlier work.
For the next experiment, the system named is BMDC. The experiment can be described thus: Cell death of BMDC by TUNEL assay. Type of experiment: cell-based, mice. As for the experimental part:
(§1) The preparation of bone marrow-derived dendritic cells (BMDC) was done according to the method of Lutz et al. (26) using GM-CSF ([…] PeproTech, Rocky Hill N.J.) or GM-CSF plus IL-4 (10 μg/ml, PeproTech). Cells were used on day 7.
Cell death was examined by terminal deoxynucleotidyl transferase dUTP nick end labeling (TUNEL). Briefly, cells were stained for expression of cell surface molecules, and then fixed with 1% methanol-free formaldehyde followed by 70% ethanol. After washing, the TUNEL reaction was performed by incubating cells in 50 μl of reaction mix containing 10 units of terminal deoxribosyl transferase (TdT), 2.5 mM cobalt chloride in 1× TdT buffer, and 0.2 pmol/μl of FITC-dUTP (Roche, Indianapolis, Ind.) at 37° C. for 1 hour. The cells were washed twice and fixed in 1% methanol-free formaldehyde. Murine thymocytes were included as a positive control for apoptotic cells. Flow cytometry was performed on an LSRII (BD Biosciences, San Jose, Calif.) calibrated with compensation beads (BD Biosciences). Analysis was performed using FlowJo software (Tree Star, Inc., Ashland, Oreg.).

A further experiment has as its system γδ T cells. The experiment can be described thus: Mixed cultures of γδ T cells and BMDC: γδ T cell activation (IL-17, IFN-γ, CD25). Type of experiment: cell-based, mice. The procedure: Cells were washed three times and then rocked with goat anti-rat conjugated magnetic beads at a 10:1 ratio of beads to cell at 4° C. for 45 min. Magnetic depletion was used to remove bead-bound cells. […] After 2 days, cells were removed from anti-TCR-γδ stimulation, supplied with fresh medium plus IL-2, and returned to culture at a density of 0.3×10^6 cells/ml. Cells were counted daily and supplied with fresh media containing 50 units/ml IL-2. […] In addition, in some experiments freshly isolated splenic γδ T cells were prepared using anti-γδ-coated magnetic beads (Miltenyi Biotec) and magnet purification.
as §1
Day 7 γδ T cells and BMDC were cultured either individually or together at a 1:1 ratio (10^6 cells/ml each). To some cultures the following reagents were added: a sonicate of Borrelia burgdorferi (10 μg/ml), zVAD-fmk (MP Biomedical, Santa Ana Calif.) at the doses indicated, necrostatin (50 μM, R&D Systems, Minneapolis, Minn.), anti-TNF-α (10 μg/ml, Calbiochem, Darnstadt, Germany),, anti-IL-1 Receptor antagonist, Anakinra (200 ng/ml, Amgen, Thousand Oaks, Calif.), anti-IL-12 (10 μg/ml, BioLegend San Diego, Calif.), anti-IL-18 (10 μg/ml, MBL, Woburn Mass.), or rat IgG (10 μg/ml Jackson Immunoresearch, West Grove Pa.). Transwell assays were performed using 1×10^6 γδ T cells in 1 ml of complete medium+IL-2 placed in the lower chamber, with 5×10^5 DC in 100 μl placed in the upper chamber. […]
Cytokine levels of IFN-γ, IL-1β, IL-12p40, IL-12p70, IL-17, and TNF-α were detected using the Bio-Plex, MilliPlex, or Luminex immunoassay (Bio-Rad; Millipore-EMD; R&D Systems, Minneapolis, Minn.) according to the manufacturer's protocol. Briefly, samples were run undiluted or diluted 1:10 in RPMI complete media. 50 μl of the magnetic bead working solution was added to each well, then 50 μl of appropriate samples or standards were then added to wells and incubated at room temperature for 30-120 min at 800 rpm on an IKA MS 3 digital shaker. After three washes with 100 μl Bio-Plex wash buffer, incubation with 25 μl of detection antibody solution was done at room temperature for 30-60 min on the shaker. Following another set of three washes, 50 μl of streptavidin-phycoerythrin (PE) in assay buffer was added to each well and incubated as described for the previous step. After an additional three washes, 125 μl of assay buffer was added. Sample data was analyzed with Bio-Plex Manager software.
The following monoclonal antibodies to murine cell surface molecules were purchased from BioLegend: PE-conjugated anti-CD25, APC-conjugated anti-TCR-γδ, and TNF-α neutralizing antibody. Rat IgG was purchased from Jackson Immunoresearch (West Grove, Pa.). For direct staining, single cell suspensions (1×10^6 total cells per staining condition) were washed with cold (4° C.) PBS containing 1% (w/v) BSA fraction V (Sigma) (PBS/1% BSA), incubated with unconjugated rat IgG (50 μg/ml) for 15 min at 4° C., washed again, and then incubated with the appropriate antibodies in PBS/1% BSA. After washing, the cells were fixed with freshly made 1% (v/v) methanol-free formaldehyde (Ted Pella Inc., Redding, Calif.) in PBS/1% BSA.

Experiment [2] relates to human synovial Vδ1 clone Bb15. The experiment can be described thus: Human synovial γδ T cell clone Bb15 cultured with human DC and B. burgdorferi. The format is cell-based. The settings on record: Borrelia plus zVAD-treated (50 μM) DC cultured with GM-CSF alone. As for the experimental part: γδ T cell clones were derived from synovial fluid T cells stimulated with B. burgdorferi sonicate (10 μg/ml) and then cloned at limiting dilution as previously described (8). All clones are of the Vδ1 subset by antibody staining and DNA sequencing (8). Clones were restimulated every 10-14 days in the presence of irradiated peripheral blood lymphocytes (3×10^5/well), human recombinant IL-2 (10 U/ml), and 10 μg/ml of B. burgdorferi.
Human monocytes were obtained as […] cells by magnetic bead purification (Miltenyi Biotech, Auburn, Calif.) from peripheral blood of healthy volunteers. Myeloid DC were prepared by culture of monocytes in AIM V media plus 10% fetal calf serum (HyClone) with 800 U/ml of granulocyte-macrophage colony-stimulating factor (GM-CSF), (BioLegend, San Diego, Calif.) without or with 500 U/ml IL-4 (BioLegend).

Setting [3] is: cultured γδ T cells + zVAD-treated BMDC, presence of B. burgdorferi, zVAD 50 μM, 20 h.
Setting [4] is: freshly isolated splenic γδ T cells + zVAD-treated DC + Borrelia.
Where [5] appears, read: freshly isolated splenic γδ T cells + zVAD-treated DC, absence of Borrelia.
[6] abbreviates: zVAD-treated BMDC, absence of Borrelia.

Where a SMILES comes first, the peptide text is derived from it. The star is where a group is joined. Cbz = O=C(OCc1ccccc1)*; CH2F = FC*

Consider `CC(C)[C@H](NC(=O)OCc1ccccc1)C(=O)N[C@@H](C)C(=O)N[C@@H](CC(=O)O)C(=O)CF` [zVAD, N-benzyloxycarbonyl-Val-Ala-Asp-fluoromethyl ketone] (Cbz-Val-Ala-Asp-CH2F), for which, in experiment [1], the “reducing cell death after ischemia in multiple tissues” value is “highly effective”. Further, the “dead BMDC” value in the experiment with BMDC (50 μM zVAD, BMDC grown in GM-CSF, within 18 hours, dose-dependent) is on record as around 80%. In addition, in the experiment with BMDC (GM-CSF+IL-4-cultured BMDC with zVAD, compared to BMDC cultured with only GM-CSF), the “cell death of BMDC” value is on record as “greatly reduced cell death”. Further, in the experiment with γδ T cells (setting [3]), the “expression of surface CD25 on γδ T cells” value is recorded as “increased expression”, the “production of IFN-γ by γδ T cells” value was “augmented production” and the “production of IL-17 by γδ T cells” value is “augmented production”. For the same molecule, in the experiment on γδ T cells (setting [4]), the “production of IFN-γ by fresh γδ T cells” value is reported as “greatly augmented production” and the “production of IL-17 by fresh γδ T cells” value was “greatly augmented production”. In the experiment with γδ T cells (setting [5]), the “production of IFN-γ by fresh γδ T cells” value is listed as “occurred even in the absence of Borrelia” and the “production of IL-17 by fresh γδ T cells” value was “occurred even in the absence of Borrelia”. Also, the “activation of γδ T cells in transwell assay” value in the experiment on γδ T cells (no cell contact, BMDC+Borrelia+zVAD in upper chamber) is on record as “partial activation”. In addition, the “activation of γδ T cells by supernatants alone” value in the experiment with γδ T cells (supernatants from cultures with BMDC+Borrelia+zVAD, no added BMDC or Borrelia) is given as “could augment activation”. Besides, in the experiment with γδ T cells (setting [6]), the “production of IFNγ by γδ T cells” value is listed as “some production” and the “production of IL-17 by γδ T cells” value is on record as “some production”. The “IFN-γ production by clone Bb15” value in experiment [2] is on record as “increased IFN-γ production”.

The record behind these values is patent US10456441B2, “Augmenting the immune response by promoting cell death of immune cells” (The University of Vermont and State Agricultural College, priority 2014, dated 2019).
